Data: patent US6956113B2 (priority 2000, dated 2005)

Tested on: bioluminescent Salmonella tester strains (his- cells)

[N-]=[N+]=[N-] [NaN, sodium azide]
bioluminescent revertants after independent exposure (mutagenicity): detection of bioluminescent revertants
